What follows are molecules tested on circulating lymphocytes (assay: Assessment of in vivo efficacy: circulating lymphocytes after oral administration). Conditions: Rattus norvegicus, Lymphocyte, po, 6 h, read-out: Lymphocyte counts.
Parameters: species or system Wistar rats
Experimental: Assessment of In vivo Efficacy
The efficacy of the compounds of formula (I) is assessed by measuring the circulating lymphocytes after oral administration of 3 to 30 mg/kg of a compound of formula (I) to normotensive male Wistar rats. The animals are housed in climate-controlled conditions with a 12 h-light/dark cycle, and have free access to normal rat chow and drinking water. Blood is collected before and 3, 6 and 24 h after drug administration. Full blood is subjected to hematology using Advia Hematology system (Bayer Diagnostics, Zurich, Switzerland).
All data are presented as mean±SEM. Statistical analyses are performed by analysis of variance (ANOVA) using Statistica (StatSoft) and the Student-Newman-Keuls procedure for multiple comparisons. The null hypothesis is rejected when p<0.05.

First: COc1cc(-c2noc(-c3cc(C)nc(NC(C)C)n3)n2)cc(C)c1OC[C@@H](O)CNC(=O)CO [Example 51, 2-hydroxy-N—((S)-2-hydroxy-3-{4-[5-(2-isopropylamino-6-methyl-pyrimidin-4-yl)-[1,2,4]oxadiazol-3-yl]-2-methoxy-6-methyl-phenoxy}-propyl)-acetamide]
Second: CCc1cc(-c2noc(-c3cc(C)nc(NC(C)C)n3)n2)cc(C)c1OC[C@@H](O)CO [Example 59, (S)-3-{2-ethyl-4-[5-(2-isopropylamino-6-methyl-pyrimidin-4-yl)-[1,2,4]oxadiazol-3-yl]-6-methyl-phenoxy}-propane-1,2-diol]
The change in vivo at 10 mg/kg of the first is higher: -61 ± 2% for the first, -69 ± 2% for the second.

Same assay, conditions: Rattus norvegicus, Lymphocyte; 6 h after oral administration of 10 mg/kg to normotensive male Wistar rats, compared to animals treated with vehicle only; mean±SEM; read-out: Lymphocyte counts

Compared with `CCN(CC)c1nc(C)cc(-c2nc(-c3cc(C)c(OCC(O)CNC(=O)CO)c(C)c3)no2)n1` (racemic) [Example 10, rac-N-(3-{4-[5-(2-Diethylamino-6-methyl-pyrimidin-4-yl)-[1,2,4]oxadiazol-3-yl]-2,6-dimethyl-phenoxy}-2-hydroxy-propyl)-2-hydroxy-acetamide], `CCc1cc(-c2noc(-c3cc(C)nc(N(CC)CC)n3)n2)cc(C)c1OC[C@@H](O)CNC(=O)CO` [Example 3, N—((S)-3-{4-[5-(2-Diethylamino-6-methyl-pyrimidin-4-yl)-[1,2,4]oxadiazol-3-yl]-2-ethyl-6-methyl-phenoxy}-2-hydroxy-propyl)-2-hydroxy-acetamide] is lower in change in vivo at 10 mg/kg: -50 ± 2% for the first, -70 ± 2% for the second.

Going from `CCNc1nc(C)cc(-c2nc(-c3cc(C)c(OCC(O)CO)c(C)c3)no2)n1` (racemic) [Example 16, rac-3-{4-[5-(2-Ethylamino-6-methyl-pyrimidin-4-yl)-[1,2,4]oxadiazol-3-yl]-2,6-dimethyl-phenoxy}-propane-1,2-diol] to `Cc1cc(-c2nc(-c3cc(C)c(OCC(O)CO)c(C)c3)no2)nc(NCC(C)C)n1` (racemic) [Example 20, rac-3-{4-[5-(2-Isobutylamino-6-methyl-pyrimidin-4-yl)-[1,2,4]oxadiazol-3-yl]-2,6-dimethyl-phenoxy}-propane-1,2-diol], the change in vivo at 10 mg/kg rises from -74 ± 1% to -55 ± 1%.

`CCNc1nc(C)cc(-c2nc(-c3cc(C)c(OC[C@@H](O)CNC(=O)CO)c(CC)c3)no2)n1` [Example 1, N—((S)-3-{2-Ethyl-4-[5-(2-ethylamino-6-methyl-pyrimidin-4-yl)-[1,2,4]oxadiazol-3-yl]-6-methyl-phenoxy}-2-hydroxy-propyl)-2-hydroxy-acetamide] and `CCNc1nc(CC)cc(-c2nc(-c3cc(C)c(OC[C@@H](O)CNC(=O)CO)c(CC)c3)no2)n1` [Example 33, N—((S)-3-{2-ethyl-4-[5-(6-ethyl-2-ethylamino-pyrimidin-4-yl)-[1,2,4]oxadiazol-3-yl]-6-methyl-phenoxy}-2-hydroxy-propyl)-2-hydroxy-acetamide] are within error of each other in change in vivo at 10 mg/kg: -70 ± 3% for the first, -65 ± 2% for the second.

`CCc1cc(-c2noc(-c3cc(C)nc(N(C)CC(C)C)n3)n2)cc(C)c1OC[C@@H](O)CNC(=O)CO` [Example 29, N—[(S)-3-(2-ethyl-4-{5-[2-(isobutyl-methyl-amino)-6-methyl-pyrimidin-4-yl]-[1,2,4]oxadiazol-3-yl}-6-methyl-phenoxy)-2-hydroxy-propyl]-2-hydroxy-acetamide] and `CCc1cc(-c2noc(-c3cc(C)nc(OCC(C)C)n3)n2)cc(C)c1OC[C@@H](O)CNC(=O)CO` [Example 40, N—((S)-3-{2-ethyl-4-[5-(2-isobutoxy-6-methyl-pyrimidin-4-yl)-[1,2,4]oxadiazol-3-yl]-6-methyl-phenoxy}-2-hydroxy-propyl)-2-hydroxy-acetamide] are within error of each other in change in vivo at 10 mg/kg: -73 ± 2% for the first, -69 ± 2% for the second.

Going from `CCc1cc(-c2noc(-c3cc(C)nc(NCC4CC4)n3)n2)cc(C)c1OC[C@@H](O)CNC(=O)CO` [Example 32, N—[(S)-3-(4-{5-[2-(cyclopropylmethyl-amino)-6-methyl-pyrimidin-4-yl]-[1,2,4]oxadiazol-3-yl}-2-ethyl-6-methyl-phenoxy)-2-hydroxy-propyl]-2-hydroxy-acetamide] to `CCc1cc(-c2nc(-c3cc(C)nc(NC(C)C)n3)no2)cc(C)c1OC[C@@H](O)CNC(=O)CO` [Example 85, (S)—N-(3-{2-Ethyl-4-[3-(2-isopropylamino-6-methyl-pyrimidin-4-yl)-[1,2,4]oxadiazol-5-yl]-6-methyl-phenoxy}-2-hydroxy-propyl)-2-hydroxy-acetamide], the change in vivo at 10 mg/kg falls from -58 ± 1% to -68 ± 1%.

First: CCNc1nc(CC)cc(-c2nc(-c3cc(C)c(OC[C@@H](O)CO)c(CC)c3)no2)n1 [Example 65, (S)-3-{2-ethyl-4-[5-(6-ethyl-2-ethylamino-pyrimidin-4-yl)-[1,2,4]oxadiazol-3-yl]-6-methyl-phenoxy}-propane-1,2-diol]
Second: CCc1cc(-c2noc(-c3cc(C)nc(NC(C)C)n3)n2)cc(C)c1CCC(=O)NCCO [Example 138, 3-{2-ethyl-4-[5-(2-isopropylamino-6-methyl-pyrimidin-4-yl)-[1,2,4]oxadiazol-3-yl]-6-methyl-phenyl}-N-(2-hydroxy-ethyl)-propionamide]
The change in vivo at 10 mg/kg of the first is higher: -60 ± 4% for the first, -74 ± 1% for the second.

Each molecule was assayed against recombinant human S1P1 receptor (Homo sapiens, UniProt P21453) (assay: GTPγS assay to determine EC50 values). Conditions: 35S-GTPγS binding, membranes of CHO cells expressing recombinant human S1P1 receptor, pH 7.4.
Chain of recombinant human S1P1 receptor (P21453 whole entry): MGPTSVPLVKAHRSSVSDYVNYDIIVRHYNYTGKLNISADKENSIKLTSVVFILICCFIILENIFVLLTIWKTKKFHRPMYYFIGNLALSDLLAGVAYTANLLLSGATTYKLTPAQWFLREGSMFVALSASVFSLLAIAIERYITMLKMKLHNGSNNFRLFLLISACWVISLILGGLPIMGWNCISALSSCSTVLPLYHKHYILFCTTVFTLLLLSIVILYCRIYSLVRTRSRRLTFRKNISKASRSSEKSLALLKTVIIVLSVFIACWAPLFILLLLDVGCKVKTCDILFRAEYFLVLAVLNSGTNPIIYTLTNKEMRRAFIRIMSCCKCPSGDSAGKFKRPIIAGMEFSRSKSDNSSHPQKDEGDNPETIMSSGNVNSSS
Format: biochemical
Experimental: GTPγS assay to determine EC50 values
GTPγS binding assays are performed in 96 well microtiter plates (Nunc, 442587) in a final volume of 200 μl, using membrane preparations of CHO cells expressing recombinant human S1P1 receptor. Assay conditions are 20 mM Hepes (Fluka, 54461), 100 mM NaCl (Fluka, 71378), 5 mM MgCl2 (Fluka, 63064), 0.1% BSA (Calbiochem, 126609), 1 μM GDP (Sigma, G-7127), 2.5% DMSO (Fluka, 41644), […] ^35S-GTPγS (Amersham Biosciences, SJ1320). The pH is 7.4. Test compounds are dissolved and diluted in 100% DMSO and pre-incubated at room temperature for 30 min in 150 μl of the above assay buffer, in the absence of ^35S-GTPγS. After addition of 50 μl of ^35S-GTPγS, the assay is incubated for 1 h at rt. The assay is terminated by transfer of the reaction mixture to a Multiscreen plate (Millipore, MAHFC1H60) using a cell harvester from Packard Biosciences, and the plates are washed with ice-cold 10 mM Na2HPO4/NaH2PO4 (70%/30%), dried, sealed at the bottom and, after addition of 25 μl MicroScint20 (Packard Biosciences, order#6013621), sealed on the top. Membrane-bound ^35S-GTPγS is measured with a TopCount from Packard Biosciences.
EC50 is the concentration of agonist inducing 50% of the maximal specific ^35S-GTPγS binding. Specific binding is determined by subtracting non-specific binding from maximal binding. Maximal binding is the amount of cpm bound to the Multiscreen plate in the presence of 10 μM of S1P. Non-specific binding is the amount of binding in the absence of an agonist in the assay.

`CCNc1nc(C)cc(-c2nc(-c3cc(C)c(OC[C@@H](O)CNC(=O)CO)c(CC)c3)no2)n1` [Example 1, N—((S)-3-{2-Ethyl-4-[5-(2-ethylamino-6-methyl-pyrimidin-4-yl)-[1,2,4]oxadiazol-3-yl]-6-methyl-phenoxy}-2-hydroxy-propyl)-2-hydroxy-acetamide] showed an EC50 of 1.15 nM.

From patent US8299086B2, “Pyrimidine derivatives” (Actelion Pharmaceuticals Ltd., priority 2007, dated 2012)
